Laboratory results: the supplement of paper PMC10307832

What was measured:
Test in all cases: relative viability (nuclei count vs DMSO), 5 days (fraction); higher = more cells survive
Erlotinib + Bortezomib = compound: C#Cc1cccc(Nc2ncnc3cc(OCCOC)c(OCCOC)cc23)c1 [Erlotinib] + CC(C)C[C@H](NC(=O)[C@H](Cc1ccccc1)NC(=O)c1cnccn1)B(O)O [Bortezomib] (partner 0.002 µM)
In short: (§1)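 Relative viability was taken as the ratio of nuclei in treated wells to nuclei in vehicle wells. Lung cancer cell lines in 1536-well plates received compounds by pin tool one day after seeding, either one drug alone or a fixed anchor-drug dose plus five library-drug doses (not always all listed) in √10 steps. Nuclei were counted on 4× images after 5 days of treatment, and values are medians of duplicate plates.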

Erlotinib + Crizotinib = compound: C#Cc1cccc(Nc2ncnc3cc(OCCOC)c(OCCOC)cc23)c1 [Erlotinib] + C[C@@H](Oc1cc(-c2cnn(C3CCNCC3)c2)cnc1N)c1c(Cl)ccc(F)c1Cl [Crizotinib] (partner 1 µM)
In short: as §1

Erlotinib + Dasatinib = compound: C#Cc1cccc(Nc2ncnc3cc(OCCOC)c(OCCOC)cc23)c1 [Erlotinib] + Cc1nc(Nc2ncc(C(=O)Nc3c(C)cccc3Cl)s2)cc(N2CCN(CCO)CC2)n1 [Dasatinib] (partner 0.075 µM)
In short: as §1

Erlotinib + Pemetrexed = compound: C#Cc1cccc(Nc2ncnc3cc(OCCOC)c(OCCOC)cc23)c1 [Erlotinib] + Nc1nc2[nH]cc(CCc3ccc(C(=O)N[C@@H](CCC(=O)O)C(=O)O)cc3)c2c(=O)[nH]1 [Pemetrexed] (partner 0.2 µM)
In short: as §1

AT9283 + Vorinostat = compound: O=C(Nc1c[nH]nc1-c1nc2ccc(CN3CCOCC3)cc2[nH]1)NC1CC1 [AT9283] + O=C(CCCCCCC(=O)Nc1ccccc1)NO [Vorinostat] (partner 1 µM)
In short: as §1

| Cell Line | relative viability (Erlotinib + Bortezomib; first compound 0.02 µM) | relative viability (Erlotinib + Bortezomib; first compound 0.2 µM) | relative viability (Erlotinib + Bortezomib; first compound 0.6325 µM) | relative viability (Erlotinib + Bortezomib; first compound 2 µM) | relative viability (Erlotinib + Crizotinib; first compound 0.02 µM) | relative viability (Erlotinib + Crizotinib; first compound 0.2 µM) | relative viability (Erlotinib + Crizotinib; first compound 0.6325 µM) | relative viability (Erlotinib + Crizotinib; first compound 2 µM) | relative viability (Erlotinib + Dasatinib; first compound 0.02 µM) | relative viability (Erlotinib + Dasatinib; first compound 0.2 µM) | relative viability (Erlotinib + Dasatinib; first compound 0.6325 µM) | relative viability (Erlotinib + Dasatinib; first compound 2 µM) | relative viability (Erlotinib + Pemetrexed; first compound 0.02 µM) | relative viability (Erlotinib + Pemetrexed; first compound 0.2 µM) | relative viability (Erlotinib + Pemetrexed; first compound 0.6325 µM) | relative viability (Erlotinib + Pemetrexed; first compound 2 µM) | relative viability (AT9283 + Vorinostat; first compound 0.003 µM) | relative viability (AT9283 + Vorinostat; first compound 0.03 µM) | relative viability (AT9283 + Vorinostat; first compound 0.09487 µM) | relative viability (AT9283 + Vorinostat; first compound 0.3 µM) |
| --- | --- | --- | --- | --- | --- | --- | --- | --- | --- | --- | --- | --- | --- | --- | --- | --- | --- | --- | --- | --- |
| NCI-H2087 | 1 | 1.12 | 0.804 | 0.768 | 0.882 | 1.06 | 0.871 | 0.849 | 0.799 | 0.821 | 0.923 | 0.735 | 0.753 | 0.704 | 0.728 | 0.701 | 1.01 | 0.158 | 0.179 | 0.126 |
| NCI-H2126 | 1.12 | 1.11 | 0.964 | 0.769 | 1.04 | 0.892 | 0.776 | 0.662 | 0.595 | 0.435 | 0.444 | 0.374 | 0.717 | 0.6 | 0.415 | 0.376 | 0.729 | 0.552 | 0.486 | 0.249 |
| NCI-H2228 | 1.06 | 1.03 | 1.02 | 0.8 | 0.516 | 0.476 | 0.379 | 0.32 | 0.625 | 0.492 | 0.5 | 0.368 | 0.335 | 0.295 | 0.362 | 0.337 | 0.655 | 0.277 | 0.133 | 0.103 |
| NCI-H2347 | 0.759 | 0.873 | 1.26 | 0.659 | 0.678 | 0.595 | 0.723 | 0.646 | 0.371 | 0.309 | 0.289 | 0.296 | 0.454 | 0.401 | 0.439 | 0.409 | 0.826 | 0.566 | 0.357 | 0.288 |
| NCI-H2405 | 1.12 | 1.03 | 0.998 | 0.938 | 0.957 | 0.838 | 0.958 | 0.717 | 0.214 | 0.224 | 0.201 | 0.195 | 0.893 | 1.1 | 1.06 | 1.09 | 0.959 | 0.576 | 0.3 | 0.24 |
| NCI-H3122 | 1.01 | 1.03 | 1.05 | 1.05 | 0.287 | 0.262 | 0.258 | 0.241 | 0.799 | 0.453 | 0.903 | 0.877 | 0.215 | 0.186 | 0.179 | 0.168 | 0.851 | 0.978 | 0.598 | 0.138 |
| PC-3 [JPC-3] | 0.796 | 0.455 | 0.401 | 0.324 | 0.887 | 0.409 | 0.324 | 0.377 | 0.937 | 0.627 | 0.352 | 0.29 | 0.719 | 0.477 | 0.488 | 0.37 | 0.562 | 0.694 | 0.526 | 0.46 |
| PC-14 | 0.67 | 0.259 | 0.21 | 0.249 | 0.651 | 0.278 | 0.23 | 0.224 | 0.0626 | 0.0332 | 0.0591 | 0.0181 | 0.11 | 0.168 | 0.15 | 0.133 | 0.79 | 0.17 | 0.107 | 0.114 |
| RERF-LC-KJ | 1.04 | 1.01 | 0.854 | 0.762 | 0.85 | 0.837 | 0.781 | 0.645 | 0.89 | 0.658 | 0.662 | 0.583 | 0.461 | 0.457 | 0.444 | 0.44 | 0.636 | 0.473 | 0.346 | 0.264 |
| SK-LU-1 | 1.07 | 1.55 | 1.61 | 0.984 | 1.26 | 0.914 | 0.834 | 0.727 | 0.185 | 0.211 | 0.186 | 0.164 | 1.07 | 1.01 | 1.05 |  | 0.904 | 0.418 | 0.329 | 0.314 |
| SW 1573 | 1.08 | 1.02 | 0.934 | 0.879 | 0.88 | 0.814 | 0.864 | 0.646 | 0.764 |  | 0.463 | 0.41 | 0.886 | 0.746 | 0.865 | 0.805 | 0.835 | 0.211 | 0.165 | 0.133 |
| UMC-11 | 0.934 | 0.837 | 0.738 | 0.586 | 0.644 | 0.62 | 0.84 | 0.585 | 0.512 | 0.438 | 0.482 | 0.424 | 0.759 | 0.746 | 0.851 | 0.668 | 0.359 | 0.109 | 0.117 | 0.124 |
